Test results as given in paper PMC4775281 (Structure (London, England : 1993), 2016).
pKd: −log10 of the molar value.

Target: catalytic subunit of the cAMP-dependent protein kinase A (PKA-C) (Mus musculus, UniProt P05132)
Assay: isothermal titration calorimetry
Type: binding

Nc1ncnc2c1ncn2[C@@H]1O[C@H](COP(=O)(O)O)[C@@H](O)[C@H]1O [AMP]
pKd: ~3.60
